Several values for one entry are separate records, joined by “and”; a condition that tells them apart may be missing. Equal entries are not always repeated.
System: Pseudomonas aeruginosa ATCC 27853 (GN_042)
Experiment: Synergy of cannabidiol with cell-wall disrupting agent (CBD MIC in combination, FICI)
Format: cell-based
Protocol: The compounds were stored short term at 4° C.
Analysis was performed using Microsoft Excel.

[1] = CBD with Ceftazidime, Pseudomonas aeruginosa ATCC 27853

With C=C(C)C1CCC(C)=CC1c1c(O)cc(CCCCC)cc1O (centres unmarked) [Cannabidiol, 2-[3-methyl-6-(1-methylethenyl)-2-cyclohexen-1-yl]-5-pentyl-1,3-benzenediol] the “CBD MIC with Aztreonam” value (Aztreonam at 4 μg/mL) was 0.001 µg/mL, the FICI (CBD with Aztreonam at 0.25 μg/mL, CBD MIC taken as 256 μg/mL) was 1.0625 and the FICI (CBD with Aztreonam at 1 μg/mL, CBD MIC taken as 256 μg/mL) was 1.25. For the same molecule, the FICI (CBD with Aztreonam at 2 μg/mL, CBD MIC taken as 256 μg/mL) was 0.5004 and 0.5039, the FICI (CBD with Aztreonam at 4 μg/mL, CBD MIC taken as 256 μg/mL) was 1 and the FICI range (CBD with Aztreonam, Synergy table (Table 76)) was 0.5. The FICI range (CBD with Aztreonam, all tested concentrations (Table 74)) was 0.5-1.25, the FICI (CBD with Cefepime at 0.015 μg/mL, CBD MIC taken as 256 μg/mL) was 1 and the FICI (CBD with Cefepime at 0.031 μg/mL, CBD MIC taken as 256 μg/mL) was 1. The FICI (CBD with Cefepime at 0.062 μg/mL, CBD MIC taken as 256 μg/mL) was 1, the FICI (CBD with Cefepime at 0.25 μg/mL, CBD MIC taken as 256 μg/mL) was 1.001 and the FICI (CBD with Cefepime at 0.5 μg/mL, CBD MIC taken as 256 μg/mL) was 1.002. The FICI range (CBD with Cefepime, all tested concentrations (Table 79)) was 1-1, the FICI (CBD with Cefotetan at 4 μg/mL, CBD MIC taken as 256 μg/mL) was 1.016 and the FICI (CBD with Cefotetan at 16 μg/mL, CBD MIC taken as 256 μg/mL) was 1.0625. The FICI (CBD with Cefotetan at 64 μg/mL, CBD MIC taken as 256 μg/mL) was 1.25, the FICI (CBD with Cefotetan at 128 μg/mL, CBD MIC taken as 256 μg/mL) was 1.5 and the “FICI range (MIC table)” value (CBD with Cefotetan, Pseudomonas aeruginosa ATCC 27853) was 1.02-1.5. It also gave an FICI (CBD with Ceftazidime at 0.25 μg/mL, Pseudomonas aeruginosa ATCC 27853) of 1.0625, an FICI (CBD with Ceftazidime at 1 μg/mL, Pseudomonas aeruginosa ATCC 27853) of 1.25 and an FICI (CBD with Ceftazidime at 2 μg/mL, Pseudomonas aeruginosa ATCC 27853) of 0.5. The FICI (CBD with Ceftazidime at 4 μg/mL, Pseudomonas aeruginosa ATCC 27853) was 1, the “FICI range (MIC table)” value [1] was 0.5-1.25 and the “FICI range (Synergy table)” value [1] was 0.5. The FICI (CBD with Cefuroxime at 4 μg/mL, Pseudomonas aeruginosa ATCC 27853) was 1.016, the FICI (CBD with Cefuroxime at 16 μg/mL, Pseudomonas aeruginosa ATCC 27853) was 1.0625 and the FICI (CBD with Cefuroxime at 64 μg/mL, Pseudomonas aeruginosa ATCC 27853) was 1.25. For the same molecule, the FICI (CBD with Cefuroxime at 128 μg/mL, Pseudomonas aeruginosa ATCC 27853) was 1.5, the FICI (CBD with Colistin at 0.031 μg/mL, Pseudomonas aeruginosa ATCC 27853) was 1.031 and the FICI (CBD with Colistin at 0.062 μg/mL, Pseudomonas aeruginosa ATCC 27853) was 1.062. The FICI (CBD with Colistin at 0.25 μg/mL, Pseudomonas aeruginosa ATCC 27853) was 1.25, the FICI (CBD with Colistin at 0.5 μg/mL, Pseudomonas aeruginosa ATCC 27853) was 1.5 and the FICI (CBD with Colistin at 1 μg/mL, Pseudomonas aeruginosa ATCC 27853) was 1. For the same molecule, the “FICI range (MIC table)” value (CBD with Colistin, Pseudomonas aeruginosa ATCC 27853) was 1-1.5, the “FICI range (MIC table)” value (CBD with MCC_6442, Pseudomonas aeruginosa ATCC 27853) was 1-1.5 and the FICI (CBD with MCC_6442 at 0.25 μg/mL, Pseudomonas aeruginosa ATCC 27853) was 1.0625. It also gave an FICI (CBD with MCC_6442 at 1 μg/mL, Pseudomonas aeruginosa ATCC 27853) of 1.25, an FICI (CBD with MCC_6442 at 2 μg/mL, Pseudomonas aeruginosa ATCC 27853) of 1.5 and an FICI (CBD with MCC_6442 at 4 μg/mL, Pseudomonas aeruginosa ATCC 27853) of 1. The FICI (CBD with Octapeptin C4 at 0.25 μg/mL, CBD MIC taken as 256 μg/mL) was 1.0625, the FICI (CBD with Octapeptin C4 at 0.5 μg/mL, CBD MIC taken as 256 μg/mL) was 1.0625 and the FICI (CBD with Octapeptin C4 at 1 μg/mL, CBD MIC taken as 256 μg/mL) was 1.25. For the same molecule, the FICI (CBD with Octapeptin C4 at 2 μg/mL, CBD MIC taken as 256 μg/mL) was 1.25 and 1.5, the FICI (CBD with Octapeptin C4 at 4 μg/mL, CBD MIC taken as 256 μg/mL) was 0.5 and 1 and the FICI (CBD with Octapeptin C4 at […], CBD MIC taken as 256 μg/mL) was 1.016. The FICI range (CBD with Spero SPR206, 1st of 3 experiments) was 1-4, the FICI range (CBD with Spero SPR206, 3rd of 3 experiments) was 1.13-5 and the FICI (CBD with Spero SPR206 at 0.25 μg/mL, 1st of 3 experiments, CBD MIC taken as 256 μg/mL) was 1.25. The FICI (CBD with Spero SPR206 at 0.25 μg/mL, 3rd of 3 experiments, CBD MIC taken as 256 μg/mL) was 1.25, the FICI (CBD with Spero SPR206 at 0.5 μg/mL, 1st of 3 experiments, CBD MIC taken as 256 μg/mL) was 1.5 and the FICI (CBD with Spero SPR206 at 0.5 μg/mL, 3rd of 3 experiments, CBD MIC taken as 256 μg/mL) was 1.5. It also gave an FICI (CBD with Spero SPR206 at 1 μg/mL, 1st of 3 experiments, CBD MIC taken as 256 μg/mL) of 1, an FICI (CBD with Spero SPR206 at 1 μg/mL, 3rd of 3 experiments, CBD MIC taken as 256 μg/mL) of 2 and an FICI (CBD with Spero SPR206 at 2 μg/mL, 1st of 3 experiments, CBD MIC taken as 256 μg/mL) of 2. For the same molecule, the FICI (CBD with Spero SPR206 at 2 μg/mL, 3rd of 3 experiments, CBD MIC taken as 256 μg/mL) was 3, the FICI (CBD with Spero SPR206 at 4 μg/mL, 1st of 3 experiments, CBD MIC taken as 256 μg/mL) was 4 and the FICI (CBD with Spero SPR206 at 4 μg/mL, 3rd of 3 experiments, CBD MIC taken as 256 μg/mL) was 5. For the same molecule, the FICI (CBD with Ticarcillin at 2 μg/mL, Pseudomonas aeruginosa ATCC 27853) was 1.0625, the FICI (CBD with Ticarcillin at 4 μg/mL, Pseudomonas aeruginosa ATCC 27853) was 1.25 and the FICI (CBD with Ticarcillin at 8 μg/mL, Pseudomonas aeruginosa ATCC 27853, listed as CBD) was 1.25 and 1.5. The FICI (CBD with Ticarcillin at 16 μg/mL, Pseudomonas aeruginosa ATCC 27853, listed as CBD) was 0.5 and 1, the FICI (CBD with Ticarcillin at 32 μg/mL, Pseudomonas aeruginosa ATCC 27853, listed as CBD) was 1 and 2 and the FICI (CBD with Ticarcillin at 64 μg/mL, Pseudomonas aeruginosa ATCC 27853, listed as CBD) was 2 and 4. For the same molecule, the “FICI range (Synergy table)” value (CBD with Ticarcillin, Pseudomonas aeruginosa ATCC 27853) was 0.5, the “CBD MIC with Cefotetan” value (Cefotetan at 4 μg/mL) was over 32 µg/mL and the “CBD MIC with Cefotetan” value (Cefotetan at 4 μg/mL, Pseudomonas aeruginosa ATCC 27853) was over 256 µg/mL. For the same molecule, the “CBD MIC with Cefotetan” value (Cefotetan at 8 μg/mL) was over 32 µg/mL, the “CBD MIC with Cefotetan” value (Cefotetan at 8 μg/mL, Pseudomonas aeruginosa ATCC 27853) was over 256 µg/mL and the “CBD MIC with Cefotetan” value (Cefotetan at 16 μg/mL) was over 32 µg/mL. For the same molecule, the “CBD MIC with Cefotetan” value (Cefotetan at 16 μg/mL, Pseudomonas aeruginosa ATCC 27853) was over 256 µg/mL, the “CBD MIC with Cefotetan” value (Cefotetan at 32 μg/mL) was over 32 µg/mL and the “CBD MIC with Cefotetan” value (Cefotetan at 32 μg/mL, Pseudomonas aeruginosa ATCC 27853) was over 256 µg/mL. The “CBD MIC with Cefotetan” value (Cefotetan at 64 μg/mL) was over 32 µg/mL, the “CBD MIC with Cefotetan” value (Cefotetan at 64 μg/mL, Pseudomonas aeruginosa ATCC 27853) was over 256 µg/mL and the “CBD MIC with Cefotetan” value (Cefotetan at 128 μg/mL) was over 32 µg/mL. For the same molecule, the “CBD MIC with Cefotetan” value (Cefotetan at 128 μg/mL, Pseudomonas aeruginosa ATCC 27853) was over 256 µg/mL, the “CBD MIC with Ceftazidime” value (Ceftazidime at 0.015 μg/mL as headed in Table 64, Pseudomonas aeruginosa ATCC 27853) was over 256 µg/mL and the “CBD MIC with Ceftazidime” value (Ceftazidime at 0.031 μg/mL as headed in Table 64, Pseudomonas aeruginosa ATCC 27853) was over 256 µg/mL. For the same molecule, the “CBD MIC with Ceftazidime” value (Ceftazidime at 0.062 μg/mL as headed in Table 64, Pseudomonas aeruginosa ATCC 27853) was over 256 µg/mL and the “CBD MIC with Ceftazidime” value (Ceftazidime at 0.25 μg/mL (Table 66), Pseudomonas aeruginosa ATCC 27853) was over 32 µg/mL.

Reference: patent US20230013669A1, “Antibacterial Treatment Using a Cannabinoid and an Active Agent” (priority 2019, published 2023)
